Experimental findings from patent publication US20220204539A1, “CD73 INHIBITORS” (BioArdis LLC, priority 2019, published 2022) are described below.

Experiment [1] has as its target T1, Recombinant Human 5′-Nucleotidase (CD73) (Homo sapiens, UniProt P21589).
T1 construct: CHO derived CD73 (Trp27-Lys547), with a C-terminal 6-His tag; 6-His (C); purchased R&D 5795-EN; host or cells: CHO
T1 sequence (P21589 27-547): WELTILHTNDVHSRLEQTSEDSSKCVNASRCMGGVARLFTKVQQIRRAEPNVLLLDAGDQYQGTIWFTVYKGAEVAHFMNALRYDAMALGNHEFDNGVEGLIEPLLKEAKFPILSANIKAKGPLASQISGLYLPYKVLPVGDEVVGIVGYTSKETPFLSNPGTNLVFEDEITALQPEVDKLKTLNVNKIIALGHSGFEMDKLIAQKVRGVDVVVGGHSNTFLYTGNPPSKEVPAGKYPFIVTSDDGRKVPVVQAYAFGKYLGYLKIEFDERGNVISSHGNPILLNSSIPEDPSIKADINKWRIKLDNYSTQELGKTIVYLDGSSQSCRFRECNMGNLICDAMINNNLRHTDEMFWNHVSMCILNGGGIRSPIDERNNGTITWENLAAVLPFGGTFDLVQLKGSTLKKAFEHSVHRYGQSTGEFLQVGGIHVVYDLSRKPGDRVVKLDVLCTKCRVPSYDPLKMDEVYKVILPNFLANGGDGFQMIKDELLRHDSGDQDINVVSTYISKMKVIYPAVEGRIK
Put plainly: CD73 Enzyme Assay. As to conditions: human CD73 0.5 nM, AMP 30 μM, PiColorLock phosphate detection; read-out: Potency (IC50, CD73 enzyme assay). Type of experiment: biochemical. In outline: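 Human CD73 (CHO-derived Trp27-Lys547, His-tagged; 0.5 nM final) was preincubated with compound for 15 min at 25° C. in Tris pH 7.5 buffer with MgCl2. It then reacted with 30 μM AMP for 20 min at 37° C., and released phosphate was read by malachite green absorbance at 635 nm. IC50 came from four-parameter fits against enzyme and no-enzyme controls.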

The target in experiment [2] is T2, Cell surface CD73 of U87 MG human glioblastoma cells (Homo sapiens, UniProt P21589).
T2 construct: Cell surface CD73 catalyzes the conversion of adenosine monophosphate (AMP) to adenosine and inorganic phosphate; endogenous in cells; host or cells: U87 MG human glioblastoma cells
T2 sequence (P21589 27-549): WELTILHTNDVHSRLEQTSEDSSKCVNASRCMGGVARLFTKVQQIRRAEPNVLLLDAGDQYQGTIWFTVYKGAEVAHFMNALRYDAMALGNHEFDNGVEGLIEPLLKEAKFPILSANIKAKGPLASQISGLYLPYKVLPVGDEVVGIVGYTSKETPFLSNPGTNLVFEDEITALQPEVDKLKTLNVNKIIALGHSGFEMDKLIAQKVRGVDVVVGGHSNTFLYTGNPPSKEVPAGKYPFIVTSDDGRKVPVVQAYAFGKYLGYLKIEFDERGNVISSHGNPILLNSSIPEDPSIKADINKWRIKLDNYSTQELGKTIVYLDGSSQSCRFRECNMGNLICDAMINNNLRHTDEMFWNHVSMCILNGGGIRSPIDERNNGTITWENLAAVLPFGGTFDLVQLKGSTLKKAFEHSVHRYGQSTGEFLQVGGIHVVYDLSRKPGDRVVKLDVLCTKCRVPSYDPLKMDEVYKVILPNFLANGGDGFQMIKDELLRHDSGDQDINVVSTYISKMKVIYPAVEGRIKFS
Put plainly: CD73 Cellular Assay. The conditions noted are these: 5000 cells per well, 30 μM AMP substrate, read-out: Potency (IC50, CD73 cellular assay). In kind it is cell-based. The protocol: Cell surface CD73 catalyzes the conversion of adenosine monophosphate (AMP) to adenosine and inorganic phosphate. U87 MG human glioblastoma cells express high level of CD73. Cells are treated with compounds in a 96-well assay plate and supernatants are collected into a 384-well detection plate. The concentration of inorganic phosphate (Pi) in the supernatants is determined using the phosphate detection reagent, PiColorLock™ (Innova Bioscience, Cat #303-0125) following the manufacturer's instructions.
Briefly, on the day of the assay, U87 MG cells were harvested and resuspended in assay buffer which consisted of 20 mM HEPES, pH=7.4, 137 mM NaCl, 5.4 mM KCl, 1.3 mM CaCl2, 4.2 mM NaHCO3 and 0.1% glucose. To test the effect of compounds on cellular CD73 enzymatic activity, 500 nL/well of compounds dissolved in DMSO were added to a 96-well TC-treated microplate (Corning #3599). Next, 80 μL/well of U87 MG cells in assay buffer were added to assay plate. After 30 minutes of incubation in an atmosphere of 5% CO2 at 37° C., 20 μL/well of 150 μM AMP (Adenosine 5′-monophosphate monohydrate, Sigma, Cat #01930) in assay buffer was added to assay plate. Final assay conditions consisted of 5000 cells per well in 0.5% DMSO and 30 μM AMP substrate. After 50 minutes of incubation in an atmosphere of 5% CO2 at 37° C., 50 μL/well of supernatant was transferred to the 384-well detection plate (Corning® NBS™ 384 well plates, Cat #3640). Meanwhile “Gold mix” was prepared shortly before use by adding 1/100 volume of accelerator to the PiColorLock™ Gold reagent. 12 μL/well of the “Gold mix” was added to detection plate containing 50 μL/well of supernatant and incubated at 25° C. for 5 minutes. 5 μL/well stabilizer was added to the detection plate and incubated at 25° C. for 30 minutes. The absorbance at 635 nm was measured on a Spark 10M instrument (TECAN). The percent (%) inhibition at each concentration of a compound was calculated relative to the OD value in the Max and Min control wells contained within each assay plate. The Max control wells contained cells and substrate as 0% inhibition, and the Min control wells only contained cells as 100% inhibition. The concentrations and percent inhibition values for a test compound are plotted and the concentration of a the compound required to achieve 50% inhibition (IC50) was determined with a four-parameter logistic dose response equation.

The structures appear in SMILES notation. pIC50: −log10 of the molar value.

Take `O=P(O)(O)CP(=O)(O)OC[C@H]1O[C@@H](c2coc3c(NCc4ccccc4)nc(Cl)nc23)[C@H](O)[C@@H]1O` [Compound 15, [({[(2R,3S,4R,5S)-5-[4-(benzylamino)-2-chlorofuro[3,2-d]pyrimidin-7-yl]-3,4-dihydroxyoxolan-2-yl]methoxy}(hydroxy)phosphoryl)methyl]phosphonic Acid]: the results for the negative logarithm of the IC50 (pIC50) in experiment [1] and in experiment [2] were more than 8.00 and more than 9.00, respectively.

As for `O=P(O)(O)CP(=O)(O)OC[C@H]1O[C@@H](c2ccc3c(NCc4ccccc4)ncnn23)[C@H](O)[C@@H]1O` [Compound 16, (((((2R,3S,4R,1S)-5-(4-(benzylamino)pyrrolo[2,1-f][1,2,4]triazin-7-yl)-3,4-dihydroxytetrahydrofuran-2-yl)methoxy)(hydroxy)phosphoryl)methyl)phosphonic acid], the pIC50 (as a rule, −log10 of the IC50, conventionally taken in molar units) is 7.00 to 8.00 in experiment [1] and 8.00 to 9.00 in experiment [2].

As to `CO[C@H]1CC[C@H](Nc2nc(Cl)nn3c([C@@H]4O[C@H](COP(=O)(O)CP(=O)(O)O)[C@@H](O)[C@H]4O)cnc23)CC1` [Compound 17, (((((2R,3S,4R,1S)-5-(2-chloro-4-(((1r,4S)-4-methoxycyclohexyl)amino)imidazo[2,1-f][1,2,4]triazin-7-yl)-3,4-dihydroxytetrahydrofuran-2-yl)methoxy)(hydroxy)phosphoryl)methyl)phosphonic acid], the negative logarithm of the IC50 (pIC50) in experiment [1] was more than 8.00; in experiment [2], more than 9.00.

On to `O=P(O)(O)CP(=O)(O)OC[C@H]1O[C@@H](c2cnc3c(N4CCc5ccccc54)nc(Cl)nn23)[C@H](O)[C@@H]1O` [Compound 18, (((((2R,3S,4R,1S)-5-(2-chloro-4-(indolin-1-yl)imidazo[2,1-f][1,2,4]triazin-7-yl)-3,4-dihydroxytetrahydrofuran-2-yl)methoxy)(hydroxy)phosphoryl)methyl)phosphonic Acid], for which the negative-log IC50 (pIC50) in experiment [1] is more than 8.00; in experiment [2] it was 8.00 to 9.00.

For the compound `O=P(O)(O)CP(=O)(O)OC[C@H]1O[C@@H](c2cnc3c(N4CCc5ccccc5C4)nc(Cl)nn23)[C@H](O)[C@@H]1O` [Compound 19, (((((2R,3S,4R,1S)-5-(2-chloro-4-(3,4-dihydroisoquinolin-2(1H)-yl)imidazo[2,1-f][1,2,4]triazin-7-yl)-3,4-dihydroxytetrahydrofuran-2-yl)methoxy)(hydroxy)phosphoryl)methyl)phosphonic Acid], the negative-log IC50 (pIC50) in experiment [1] was more than 8.00; in experiment [2], more than 9.00.

With `O=P(O)(O)CP(=O)(O)OC[C@H]1O[C@@H](c2cnc3c(NC4CCCCC4)nc(Cl)nn23)[C@H](O)[C@@H]1O` [Compound 20, (((((2R,3S,4R,1S)-5-(2-chloro-4-(cyclohexylamino)imidazo[2,1-f][1,2,4]triazin-7-yl)-3,4-dihydroxytetrahydrofuran-2-yl)methoxy)(hydroxy)phosphoryl)methyl)phosphonic Acid], the pIC50 was more than 8.00 in experiment [1] and more than 9.00 in experiment [2].

As for `O=P(O)(O)CP(=O)(O)OC[C@H]1O[C@@H](c2cnc3c(N[C@H]4CCOC4)nc(Cl)nn23)[C@H](O)[C@@H]1O` [Compound 21, [({[(2R,3S,4R,5S)-5-{2-chloro-4-[(3S)-oxolan-3-ylamino]imidazo[2,1-f][1,2,4]triazin-7-yl}-3,4-dihydroxyoxolan-2-yl]methoxy}(hydroxy)phosphoryl)methyl]phosphonic Acid], the pIC50 in experiment [1] was more than 8.00; in experiment [2], more than 9.00.

For `O=P(O)(O)CP(=O)(O)OC[C@H]1O[C@@H](c2cnc3c(N[C@@H]4CCOC4)nc(Cl)nn23)[C@H](O)[C@@H]1O` [Compound 22, (((((2R,3S,4R,1S)-5-(2-chloro-4-(((R)-tetrahydrofuran-3-yl)amino)imidazo[2,1-f][1,2,4]triazin-7-yl)-3,4-dihydroxytetrahydrofuran-2-yl)methoxy)(hydroxy)phosphoryl)methyl)phosphonic Acid], the pIC50 in experiment [1] was more than 8.00; in experiment [2], more than 9.00.

On to `COC1CCC(Nc2nc(Cl)nn3c([C@@H]4O[C@H](COP(=O)(O)CP(=O)(O)O)[C@@H](O)[C@H]4O)cnc23)C1` (stereo partly drawn) [Compound 23, (((((2R,3S,4R,1S)-5-(2-chloro-4-((3-methoxycyclopentyl)amino)imidazo[2,1-f][1,2,4]triazin-7-yl)-3,4-dihydroxytetrahydrofuran-2-yl)methoxy)(hydroxy)phosphoryl)methyl)phosphonic acid], for which the pIC50 was more than 8.00 in experiment [1] and more than 9.00 in experiment [2].

For the compound `O=P(O)(O)CP(=O)(O)OC[C@H]1O[C@@H](c2cnc3c(N4Cc5ccccc5C4)nc(Cl)nn23)[C@H](O)[C@@H]1O` [Compound 24, [({[(2R,3S,4R,5S)-5-[2-chloro-4-(1,3-dihydroisoindol-2-yl)imidazo[2,1-f][1,2,4]triazin-7-yl]-3,4-dihydroxyoxolan-2-yl]methoxy}(hydroxy)phosphoryl)methyl]phosphonic acid], the values for the negative-log IC50 (pIC50) in experiment [1] and in experiment [2] were more than 8.00 and more than 9.00, respectively.

Take `CO[C@H]1CC[C@@H](Nc2nc(Cl)nn3c([C@@H]4O[C@H](COP(=O)(O)CP(=O)(O)O)[C@@H](O)[C@H]4O)cnc23)CC1` [Compound 27, (((((2R,3S,4R,1S)-5-(2-chloro-4-(((1s,4R)-4-methoxycyclohexyl)amino)imidazo[2,1-f][1,2,4]triazin-7-yl)-3,4-dihydroxytetrahydrofuran-2-yl)methoxy)(hydroxy)phosphoryl)methyl)phosphonic Acid]: the negative logarithm of the IC50 (pIC50) was more than 8.00 in experiment [1] and more than 9.00 in experiment [2].

As for `O=P(O)(O)CP(=O)(O)OC[C@H]1O[C@@H](c2cnc3c(N[C@@H]4CCc5ccccc54)nc(Cl)nn23)[C@H](O)[C@@H]1O` [Compound 28, (((((2R,3S,4R,1S)-5-(2-chloro-4-(((R)-2,3-dihydro-1H-inden-1-yl)amino)imidazo[2,1-f][1,2,4]triazin-7-yl)-3,4-dihydroxytetrahydrofuran-2-yl)methoxy)(hydroxy)phosphoryl)methyl)phosphonic Acid], the results for the pIC50 in experiment [1] and in experiment [2] were more than 8.00 and more than 9.00, respectively.
